Active and inactive are the calls of the source. The rule behind the calls is not given here.
Tests used:
MM1.S [1] = assay: Induction of cell cycle arrest in human MM1.S cells assessed as accumulation of cells at G2 phase at 30 nM incubated for 24 hrs by flow cytometry analysis (reference value: 14.68%); format: functional
[2] = target: T1, Protein cereblon/Bromodomain-containing protein 4 (Homo sapiens) (UniProt O60885+Q96SW2); assay: PROTAC activity at CRBN/BRD4-L in human HGC-27 cells assessed as induction of protein degradation measured after 24 hrs by Western blot analysis; format: cell-based; conditions: dose 0.1-30 nM
T1 sequence (Q96SW2 whole entry, looked up, other chains not shown): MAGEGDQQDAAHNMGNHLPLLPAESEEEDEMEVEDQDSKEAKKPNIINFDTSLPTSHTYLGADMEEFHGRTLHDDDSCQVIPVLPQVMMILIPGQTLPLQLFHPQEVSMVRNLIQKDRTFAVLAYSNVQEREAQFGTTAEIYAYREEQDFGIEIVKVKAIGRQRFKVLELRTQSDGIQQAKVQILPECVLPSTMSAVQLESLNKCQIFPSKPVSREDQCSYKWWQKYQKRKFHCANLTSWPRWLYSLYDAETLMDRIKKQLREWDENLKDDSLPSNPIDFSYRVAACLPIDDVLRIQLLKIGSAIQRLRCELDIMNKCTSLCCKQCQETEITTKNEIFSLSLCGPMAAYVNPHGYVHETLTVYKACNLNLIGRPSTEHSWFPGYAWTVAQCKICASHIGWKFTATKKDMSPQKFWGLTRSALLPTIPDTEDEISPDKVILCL

HGC-27 = assay: Antiproliferative activity against human HGC-27 cells assessed as cell growth inhibition measured after 4 days by CCK-8 assay; format: functional, cell-based; conditions: HGC-27, 96 h
[3] = target: T1, Protein cereblon/Bromodomain-containing protein 4 (Homo sapiens); assay: PROTAC activity at CRBN/BRD4-S in human U-937 cells assessed as induction of protein degradation by Western blot analysis; format: cell-based
[4] = target: T2, Protein cereblon/Bromodomain-containing protein 3 (Homo sapiens) (UniProt Q15059+Q96SW2); assay: PROTAC activity at CRBN/BRD3 in human MM1.S cells assessed as induction of protein degradation at 2 nM measured after 24 hrs by Western blot analysis; format: cell-based
T2 sequence (Q15059 2-726 limits assumed): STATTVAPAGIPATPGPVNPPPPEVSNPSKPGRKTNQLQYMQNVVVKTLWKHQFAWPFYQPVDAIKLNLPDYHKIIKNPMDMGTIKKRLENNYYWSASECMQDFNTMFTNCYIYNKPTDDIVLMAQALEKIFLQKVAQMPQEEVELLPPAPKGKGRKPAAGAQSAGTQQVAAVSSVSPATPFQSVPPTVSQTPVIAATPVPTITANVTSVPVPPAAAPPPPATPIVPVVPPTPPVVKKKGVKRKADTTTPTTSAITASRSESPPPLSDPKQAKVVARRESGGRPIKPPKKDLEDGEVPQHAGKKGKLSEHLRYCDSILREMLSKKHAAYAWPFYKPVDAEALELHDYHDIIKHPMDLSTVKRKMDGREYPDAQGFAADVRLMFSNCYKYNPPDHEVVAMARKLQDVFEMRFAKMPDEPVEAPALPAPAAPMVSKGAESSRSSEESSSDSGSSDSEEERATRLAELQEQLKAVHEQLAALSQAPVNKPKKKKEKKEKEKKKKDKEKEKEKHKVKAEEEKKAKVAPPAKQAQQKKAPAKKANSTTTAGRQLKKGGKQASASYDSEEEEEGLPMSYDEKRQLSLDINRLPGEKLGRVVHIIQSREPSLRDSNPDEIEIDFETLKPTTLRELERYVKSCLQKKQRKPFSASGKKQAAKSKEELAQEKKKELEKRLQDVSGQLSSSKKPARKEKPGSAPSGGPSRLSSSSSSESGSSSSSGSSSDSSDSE
T2 sequence (Q96SW2 whole entry partner): as the sequence (Q96SW2 whole entry, looked up, other chains not shown) above

[5] = target: T1, Protein cereblon/Bromodomain-containing protein 4 (Homo sapiens); assay: PROTAC activity at CRBN/BRD4-S in human MV4-11 cells assessed as induction of protein degradation at 0.1 to 30 nM measured after 24 hrs by Western blot analysis; format: cell-based; conditions: dose 0.1-30 nM
[6] = target: T1, Protein cereblon/Bromodomain-containing protein 4 (Homo sapiens); assay: PROTAC activity at CRBN/BRD4-L in human MM1.S cells assessed as induction of protein degradation at 30 nM pretreated with (6R)-N-(4-chlorophenyl)-1-methyl-8-(1-methyl-1H-pyrazol-4-yl)-5,6-dihydro-4H-benzo[f][1,2,4]triazolo[4,3-a]azepin-6-amine for 2 hrs followed by compound addition and measured after 4 hrs by Western blot analysis; format: cell-based
[7] = target: T3, Protein cereblon/Bromodomain-containing protein 2 (Homo sapiens) (UniProt P25440+Q96SW2); assay: PROTAC activity at CRBN/BRD2 in human HeLa cells assessed as induction of protein degradation at 1 to 300 nM measured after 24 hrs by Western blot analysis; format: cell-based; conditions: dose 1-300 nM
T3 sequence (P25440 whole entry, looked up): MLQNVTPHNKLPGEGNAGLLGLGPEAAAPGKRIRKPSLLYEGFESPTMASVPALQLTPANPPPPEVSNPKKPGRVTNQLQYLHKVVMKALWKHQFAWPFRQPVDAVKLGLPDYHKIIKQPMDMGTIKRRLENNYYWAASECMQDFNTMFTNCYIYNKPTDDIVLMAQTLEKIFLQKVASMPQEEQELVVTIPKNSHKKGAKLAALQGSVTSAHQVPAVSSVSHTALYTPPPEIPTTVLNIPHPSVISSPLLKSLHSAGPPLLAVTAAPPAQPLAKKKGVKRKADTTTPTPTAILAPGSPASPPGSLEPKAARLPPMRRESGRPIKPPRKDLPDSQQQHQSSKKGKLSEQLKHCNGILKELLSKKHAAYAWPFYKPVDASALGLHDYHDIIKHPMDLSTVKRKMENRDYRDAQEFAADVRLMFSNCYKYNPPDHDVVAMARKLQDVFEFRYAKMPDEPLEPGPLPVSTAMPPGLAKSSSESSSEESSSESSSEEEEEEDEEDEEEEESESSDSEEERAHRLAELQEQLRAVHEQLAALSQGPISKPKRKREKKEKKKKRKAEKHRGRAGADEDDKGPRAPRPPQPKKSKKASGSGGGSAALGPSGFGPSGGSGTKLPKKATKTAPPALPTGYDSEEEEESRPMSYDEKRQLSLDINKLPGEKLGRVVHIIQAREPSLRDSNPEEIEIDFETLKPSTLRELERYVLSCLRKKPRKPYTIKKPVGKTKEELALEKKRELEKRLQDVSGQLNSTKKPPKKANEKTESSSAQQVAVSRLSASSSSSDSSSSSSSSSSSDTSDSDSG
T3 sequence (Q96SW2 whole entry, looked up): as the sequence (Q96SW2 whole entry, looked up, other chains not shown) above

[8] = target: T1, Protein cereblon/Bromodomain-containing protein 4 (Homo sapiens); assay: PROTAC activity at CRBN/BRD4-L in human U-937 cells assessed as induction of protein degradation by Western blot analysis; format: cell-based
HepG2 = assay: Antiproliferative activity against human HepG2 cells assessed as cell growth inhibition measured after 4 days by CCK-8 assay; format: functional, cell-based; conditions: HepG2, 96 h
MM1.S [9] = assay: Induction of cell cycle arrest in human MM1.S cells assessed as accumulation of cells at S phase at 3 nM incubated for 24 hrs by flow cytometry analysis (reference value: 22.37%); format: functional
[10] = target: T1, Protein cereblon/Bromodomain-containing protein 4 (Homo sapiens); assay: PROTAC activity at CRBN/BRD4-S in human HGC-27 cells assessed as induction of protein degradation at 0.1 to 30 nM measured after 24 hrs by Western blot analysis; format: cell-based; conditions: dose 0.1-30 nM
MM1.S [11] = assay: Induction of cell cycle arrest in human MM1.S cells assessed as accumulation of cells at G1 phase at 100 nM incubated for 24 hrs by flow cytometry analysis (reference value: 56.32%); format: functional
[12] = target: T3, Protein cereblon/Bromodomain-containing protein 2 (Homo sapiens); assay: PROTAC activity at CRBN/BRD2 in human MCF7 cells assessed as induction of protein degradation at 1 to 300 nM measured after 24 hrs by Western blot analysis; format: cell-based; conditions: dose 1-300 nM
MM1.S [13] = assay: Downregulation of BRD3 expression in human MM1.S cells by proteomic analysis; format: functional, cell-based
[14] = target: T2, Protein cereblon/Bromodomain-containing protein 3 (Homo sapiens); assay: PROTAC activity at CRBN/BRD3 in human MM1.S cells assessed as induction of protein degradation at 30 nM measured after 3 to 6 hrs by Western blot analysis; format: cell-based; conditions: time 3-6 hrs
[15] = target: T1, Protein cereblon/Bromodomain-containing protein 4 (Homo sapiens); assay: PROTAC activity at CRBN/BRD4-L in human MM1.S cells assessed as induction of protein degradation measured after 24 hrs by Western blot analysis; format: cell-based
MM1.S [16] = assay: Induction of cell cycle arrest in human MM1.S cells assessed as accumulation of cells at S phase at 10 nM incubated for 24 hrs by flow cytometry analysis (reference value: 22.37%); format: functional
HeLa = assay: Antiproliferative activity against human HeLa cells assessed as cell growth inhibition measured after 4 days by CCK-8 assay; format: functional, cell-based; conditions: 96 h
MM1.S [17] = assay: Induction of cell cycle arrest in human MM1.S cells assessed as accumulation of cells at G1 phase at 1 nM incubated for 24 hrs by flow cytometry analysis (reference value: 56.32%); format: functional
[18] = target: T3, Protein cereblon/Bromodomain-containing protein 2 (Homo sapiens); assay: PROTAC activity at CRBN/BRD2 in human HepG2 cells assessed as induction of protein degradation at 10 to 3000 nM measured after 24 hrs by Western blot analysis; format: cell-based; conditions: dose 10-3000 nM
MM1.S [19] = assay: Downregulation of BRD2 expression in human MM1.S cells by proteomic analysis; format: functional, cell-based
[20] = target: T1, Protein cereblon/Bromodomain-containing protein 4 (Homo sapiens); assay: PROTAC activity at CRBN/BRD4-L in human MV4-11 cells assessed as induction of protein degradation at 0.1 to 30 nM measured after 24 hrs by Western blot analysis; format: cell-based; conditions: dose 0.1-30 nM
[21] = target: T2, Protein cereblon/Bromodomain-containing protein 3 (Homo sapiens); assay: PROTAC activity at CRBN/BRD3 in human U-937 cells assessed as induction of protein degradation by Western blot analysis; format: cell-based
MM1.S [22] = assay: Induction of cell cycle arrest in human MM1.S cells assessed as accumulation of cells at G2 phase at 10 nM incubated for 24 hrs by flow cytometry analysis (reference value: 14.68%); format: functional
MM1.S [23] = assay: Downregulation of p21 protein expression in human MM1.S cells at 0.1 to 30 nM measured after 24 hrs by Western blot analysis; format: functional, cell-based; conditions: dose 0.1-30 nM
[24] = target: T3, Protein cereblon/Bromodomain-containing protein 2 (Homo sapiens); assay: PROTAC activity at CRBN/BRD2 in human MM1.S cells assessed as induction of protein degradation at 30 nM measured around 24 hrs by Western blot analysis; format: cell-based
[25] = target: Bromodomain-containing protein 3 (Homo sapiens, UniProt Q15059); assay: Binding affinity to recombinant human BRD3 BD2 (306 to 417 residues) assessed as inhibition constant by fluorescence polarization binding assay
Sequence of Bromodomain-containing protein 3 (Q15059 whole entry, the tested form may be a part): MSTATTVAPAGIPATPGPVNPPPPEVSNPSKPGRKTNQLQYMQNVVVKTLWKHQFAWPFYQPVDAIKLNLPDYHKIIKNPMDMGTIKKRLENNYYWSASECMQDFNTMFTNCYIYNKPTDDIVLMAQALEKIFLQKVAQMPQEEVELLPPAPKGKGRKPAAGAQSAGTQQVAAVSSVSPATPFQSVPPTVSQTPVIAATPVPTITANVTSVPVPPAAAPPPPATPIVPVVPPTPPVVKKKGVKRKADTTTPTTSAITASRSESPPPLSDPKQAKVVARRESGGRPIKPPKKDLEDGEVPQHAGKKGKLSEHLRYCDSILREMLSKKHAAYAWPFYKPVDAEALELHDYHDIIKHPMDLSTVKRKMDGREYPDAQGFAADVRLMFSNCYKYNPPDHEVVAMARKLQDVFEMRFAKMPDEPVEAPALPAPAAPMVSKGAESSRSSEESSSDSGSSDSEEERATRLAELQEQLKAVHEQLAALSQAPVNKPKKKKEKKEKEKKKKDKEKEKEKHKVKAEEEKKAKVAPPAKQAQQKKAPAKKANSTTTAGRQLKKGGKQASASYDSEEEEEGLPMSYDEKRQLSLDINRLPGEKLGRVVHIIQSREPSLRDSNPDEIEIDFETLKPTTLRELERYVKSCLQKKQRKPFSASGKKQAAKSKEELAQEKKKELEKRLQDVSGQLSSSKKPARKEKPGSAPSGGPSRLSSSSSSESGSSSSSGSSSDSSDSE

[26] = target: T3, Protein cereblon/Bromodomain-containing protein 2 (Homo sapiens); assay: PROTAC activity at CRBN/BRD2 in human A549 cells assessed as induction of protein degradation at 3 to 1000 nM measured after 24 hrs by Western blot analysis; format: cell-based; conditions: dose 3-1000 nM
[27] = target: T1, Protein cereblon/Bromodomain-containing protein 4 (Homo sapiens); assay: PROTAC activity at CRBN/BRD4-S in human MM1.S cells assessed as induction of protein degradation at 0.1 to 30 nM measured after 24 hrs by Western blot analysis; format: cell-based; conditions: dose 0.1-30 nM
[28] = target: T2, Protein cereblon/Bromodomain-containing protein 3 (Homo sapiens); assay: PROTAC activity at CRBN/BRD3 in human MM1.S cells assessed as induction of protein degradation at 30 nM pretreated with lenalidomide for 2 hrs followed by compound addition and measured after 4 hrs by Western blot analysis; format: cell-based
[29] = target: T1, Protein cereblon/Bromodomain-containing protein 4 (Homo sapiens); assay: PROTAC activity at CRBN/BRD4-L in human HepG2 cells assessed as induction of protein degradation measured after 24 hrs by Western blot analysis; format: cell-based; conditions: dose 10-3000 nM
MM1.S [30] = assay: Induction of cell cycle arrest in human MM1.S cells assessed as accumulation of cells at S phase at 1 nM incubated for 24 hrs by flow cytometry analysis (reference value: 22.37%); format: functional
[31] = target: T2, Protein cereblon/Bromodomain-containing protein 3 (Homo sapiens); assay: PROTAC activity at CRBN/BRD3 in human HeLa cells assessed as induction of protein degradation measured after 24 hrs by Western blot analysis; format: cell-based; conditions: dose 1-300 nM
[32] = target: T1, Protein cereblon/Bromodomain-containing protein 4 (Homo sapiens); assay: PROTAC activity at CRBN/BRD4-L in human HeLa cells assessed as induction of protein degradation measured after 24 hrs by Western blot analysis; format: cell-based; conditions: dose 1-300 nM

Activity [2]: Dose-Dependent Effect
Activity [3]: Dose-Dependent Effect
Activity [4]: Active
Activity [5]: Active
Activity [6]: inactive
Activity [7]: inactive
Activity [8]: inactive
IC50 (HepG2): 17.2 µM
Activity [10]: inactive
Activity [12]: inactive
Activity [14]: Active
Activity [15]: Dose-Dependent Effect
IC50 (HeLa): 6.96 µM
Activity [18]: inactive
Activity [20]: Active
Activity [21]: inactive
Activity [24]: Active
Ki [25]: 0.00245 µM
Activity [26]: inactive
Activity [27]: inactive
Activity [28]: inactive
Activity [29]: Dose-Dependent Effect
Activity [31]: Dose-Dependent Effect
Activity [32]: Dose-Dependent Effect
Compound: Cc1nnc2n1-c1ccc(-c3ccc(CNCCCCc4cccc5c4CN(C4CCC(=O)NC4=O)C5=O)cc3)cc1C(Nc1ccc(Cl)cc1)CC2 (stereo not given)
Activity (MM1.S [1]): 15.18%
IC50 (HGC-27): 2.35 µM
Activity (MM1.S [9]): 17.72%
Activity (MM1.S [11]): 65.67%
Activity (MM1.S [13]): Active
Activity (MM1.S [16]): 14.97%
Activity (MM1.S [17]): 58.49%
Activity (MM1.S [19]): inactive
Activity (MM1.S [22]): 17.82%
Activity (MM1.S [23]): Active
Activity (MM1.S [30]): 21.35%

— ChEMBL document CHEMBL5321219, “Selective degradation of cellular BRD3 and BRD4-L promoted by PROTAC molecules in six cancer cell lines” (Eur J Med Chem, 2023)
